The nature of the data set: Tissue distribution of 18F imaging agents in rats. Type of data set: in vivo, Male Sprague Dawley rats. Particulars: rat, iv tail vein ~15 μCi, ± SEM; for Blood, imaging agent distribution at 15 min / Brain, imaging agent distribution at 15 min / Femur, imaging agent distribution at 15 min / Heart, imaging agent distribution at 15 min / Kidney, imaging agent distribution at 15 min / Liver, imaging agent distribution at 15 min / Lung, imaging agent distribution at 15 min / Muscle, imaging agent distribution at 15 min / Pancreas, imaging agent distribution at 15 min / Spleen, imaging agent distribution at 15 min: 15 min post injection; for Blood, imaging agent distribution at 60 min / Brain, imaging agent distribution at 60 min / Femur, imaging agent distribution at 60 min / Heart, imaging agent distribution at 60 min / Kidney, imaging agent distribution at 60 min / Liver, imaging agent distribution at 60 min / Lung, imaging agent distribution at 60 min / Muscle, imaging agent distribution at 60 min / Pancreas, imaging agent distribution at 60 min / Spleen, imaging agent distribution at 60 min: 60 min post injection. The method, then: Anesthetized (sodium pentobarbital at 50 mg/kg, ip or isoflurane gas inhalation) Male Sprague Dawley rats (250-350 g) received an iv injection of the imaging agent (˜15 μCi) via the tail vein. At 15 or 60 min post injection, the animals were euthanized and the required tissue samples harvested. All samples were then weighed and counted for radioactivity (Wallac Wizard 1480 or Packard Cobra II Autogamma); regional tissue uptake of the imaging agent was thus expressed as a percentage of the total injected dose per gram of tissue (% ID/g).
The generic structure depicted below highlights specific structural features evaluated during distribution experiments.

For `CC(C)(C)n1ncc(OCc2cccc(COCCF)c2)c(Cl)c1=O` [Example 67A], the “Blood, imaging agent distribution at 15 min” value (from here on “Blood … at 15 min”) is 0.03 ± 0.01 % ID/g; the “Brain, imaging agent distribution at 15 min” value (“Brain … at 15 min” below) turned out to be 0.14 ± 0.05 % ID/g; the “Femur, imaging agent distribution at 15 min” value (from here on “Femur … at 15 min”) is 0.06 ± 0.02 % ID/g; the “Heart, imaging agent distribution at 15 min” value (“Heart … at 15 min” below) is recorded as 0.65 ± 0.36 % ID/g. Moreover, the “Kidney, imaging agent distribution at 15 min” value (shortened to “Kidney … at 15 min”) turned out to be 0.38 ± 0.08 % ID/g; the “Liver, imaging agent distribution at 15 min” value (from here on “Liver … at 15 min”) stood at 0.08 ± 0.03 % ID/g; the “Lung, imaging agent distribution at 15 min” value (“Lung … at 15 min” below) is on record as 0.07 ± 0.01 % ID/g; the “Muscle, imaging agent distribution at 15 min” value (from here on “Muscle … at 15 min”) was 0.09 ± 0.04 % ID/g. The “Pancreas, imaging agent distribution at 15 min” value is 0.15 ± 0.05 % ID/g; the “Spleen, imaging agent distribution at 15 min” value (“Spleen … at 15 min” for short) came to 0.05 ± 0.01 % ID/g; the “Blood, imaging agent distribution at 60 min” value (“Blood … at 60 min” for short) turned out to be 0.11 ± 0.02 % ID/g; the “Brain, imaging agent distribution at 60 min” value (“Brain … at 60 min” below) is on record as 0.14 ± 0.03 % ID/g. Besides, the “Femur, imaging agent distribution at 60 min” value (from here on “Femur … at 60 min”) stood at 0.17 ± 0.04 % ID/g; the “Heart, imaging agent distribution at 60 min” value (“Heart … at 60 min” below) was 0.84 ± 0.22 % ID/g; the “Kidney, imaging agent distribution at 60 min” value (shortened to “Kidney … at 60 min”) came to 0.23 ± 0.03 % ID/g; the “Liver, imaging agent distribution at 60 min” value (from here on “Liver … at 60 min”) amounted to 0.11 ± 0.02 % ID/g. Further, the “Lung, imaging agent distribution at 60 min” value (“Lung … at 60 min” below) worked out at 0.11 ± 0.02 % ID/g; the “Muscle, imaging agent distribution at 60 min” value (from here on “Muscle … at 60 min”) turned out to be 0.18 ± 0.04 % ID/g; the “Pancreas, imaging agent distribution at 60 min” value turned out to be 0.13 ± 0.03 % ID/g; the “Spleen, imaging agent distribution at 60 min” value (“Spleen … at 60 min” for short) was determined as 0.09 ± 0.02 % ID/g.

As to `CC(C)(C)n1ncc(OCc2ccc(OCCOCCF)cc2)c(Cl)c1=O` [Example 67B], the “Blood … at 15 min” value was 0.49 ± 0.02 % ID/g; the “Femur … at 15 min” value amounted to 0.80 ± 0.12 % ID/g; the “Heart … at 15 min” value worked out at 1.66 ± 0.06 % ID/g; the “Kidney … at 15 min” value stood at 2.25 ± 0.05 % ID/g. Besides, the “Liver … at 15 min” value is 2.33 ± 0.09 % ID/g; the “Lung … at 15 min” value is on record as 0.49 ± 0.04 % ID/g; the “Muscle … at 15 min” value turned out to be 0.19 ± 0.00 % ID/g; the “Spleen … at 15 min” value amounted to 0.41 ± 0.01 % ID/g. The “Blood … at 60 min” value was found to be 0.26 ± 0.04 % ID/g; the “Femur … at 60 min” value is 0.78 ± 0.22 % ID/g; the “Heart … at 60 min” value worked out at 1.58 ± 0.13 % ID/g; the “Kidney … at 60 min” value turned out to be 1.17 ± 0.20 % ID/g. The “Liver … at 60 min” value was 1.34 ± 0.22 % ID/g; the “Lung … at 60 min” value amounted to 0.27 ± 0.03 % ID/g; the “Muscle … at 60 min” value amounted to 0.15 ± 0.04 % ID/g; the “Spleen … at 60 min” value was found to be 0.20 ± 0.04 % ID/g.

Take `CC(C)(C)n1ncc(OCc2ccc(OCCCF)c(Cl)c2)c(Cl)c1=O` [Example 67C]: the “Blood … at 15 min” value is 0.26 ± 0.05 % ID/g; the “Brain … at 15 min” value was 0.42 ± 0.01 % ID/g; the “Femur … at 15 min” value was found to be 0.33 ± 0.01 % ID/g; the “Heart … at 15 min” value is reported as 4.21 ± 0.29 % ID/g. Also, the “Kidney … at 15 min” value was 3.04 ± 0.21 % ID/g; the “Liver … at 15 min” value stood at 2.67 ± 0.17 % ID/g; the “Lung … at 15 min” value is reported as 0.50 ± 0.08 % ID/g; the “Muscle … at 15 min” value worked out at 0.24 ± 0.04 % ID/g. For the same compound, the “Spleen … at 15 min” value is given as 0.37 ± 0.05 % ID/g; the “Blood … at 60 min” value is 0.20 ± 0.07 % ID/g; the “Brain … at 60 min” value was 0.44 ± 0.03 % ID/g; the “Femur … at 60 min” value is on record as 0.84 ± 0.07 % ID/g. The “Heart … at 60 min” value is on record as 4.54 ± 0.29 % ID/g; the “Kidney … at 60 min” value was 1.77 ± 0.25 % ID/g; the “Liver … at 60 min” value worked out at 0.65 ± 0.12 % ID/g; the “Lung … at 60 min” value is 0.61 ± 0.32 % ID/g. The “Muscle … at 60 min” value is given as 0.26 ± 0.02 % ID/g and the “Spleen … at 60 min” value was 0.18 ± 0.02 % ID/g.

With `CC(C)(C)n1ncc(OCc2ccc(OCCF)cc2)c(Cl)c1=O` [Example 67D], the “Blood … at 15 min” value stood at 1.11 % ID/g; the “Brain … at 15 min” value is on record as 0.74 % ID/g; the “Femur … at 15 min” value turned out to be 0.21 % ID/g; the “Heart … at 15 min” value is 3.63 % ID/g. The “Kidney … at 15 min” value is 3.81 % ID/g; the “Liver … at 15 min” value came out at 3.61 % ID/g; the “Lung … at 15 min” value turned out to be 1.00 % ID/g; the “Muscle … at 15 min” value is reported as 0.14 % ID/g. Further, the “Spleen … at 15 min” value was determined as 0.37 % ID/g; the “Blood … at 60 min” value worked out at 1.00 % ID/g; the “Brain … at 60 min” value is recorded as 0.69 % ID/g; the “Femur … at 60 min” value was found to be 0.26 % ID/g. The “Heart … at 60 min” value worked out at 4.66 % ID/g; the “Kidney … at 60 min” value is reported as 1.71 % ID/g; the “Liver … at 60 min” value is given as 1.49 % ID/g; the “Lung … at 60 min” value is listed as 0.96 % ID/g. The “Muscle … at 60 min” value was determined as 0.18 % ID/g and the “Spleen … at 60 min” value is 0.23 % ID/g.

As to `[2H]C([2H])(OCCF)c1ccc(COc2cnn(C(C)(C)C)c(=O)c2Cl)cc1` [Example 67E], the “Blood … at 15 min” value amounted to 0.17 ± 0.02 % ID/g; the “Brain … at 15 min” value is 0.97 ± 0.11 % ID/g; the “Femur … at 15 min” value came to 0.50 ± 0.04 % ID/g; the “Heart … at 15 min” value came to 4.80 ± 0.27 % ID/g. Further, the “Kidney … at 15 min” value is listed as 2.61 ± 0.18 % ID/g; the “Liver … at 15 min” value is 0.66 ± 0.09 % ID/g; the “Lung … at 15 min” value is 0.39 ± 0.05 % ID/g; the “Muscle … at 15 min” value turned out to be 0.77 ± 0.09 % ID/g. The “Pancreas, imaging agent distribution at 15 min” value turned out to be 0.82 ± 0.07 % ID/g; the “Spleen … at 15 min” value is listed as 0.36 ± 0.08 % ID/g; the “Blood … at 60 min” value was 0.26 ± 0.03 % ID/g; the “Brain … at 60 min” value is recorded as 0.62 ± 0.04 % ID/g. Besides, the “Femur … at 60 min” value amounted to 0.69 ± 0.05 % ID/g; the “Heart … at 60 min” value was found to be 3.61 ± 0.45 % ID/g; the “Kidney … at 60 min” value is 0.98 ± 0.04 % ID/g; the “Liver … at 60 min” value was found to be 0.53 ± 0.06 % ID/g. The “Lung … at 60 min” value came out at 0.34 ± 0.03 % ID/g; the “Muscle … at 60 min” value is on record as 0.69 ± 0.17 % ID/g; the “Pancreas, imaging agent distribution at 60 min” value is listed as 0.43 ± 0.05 % ID/g; the “Spleen … at 60 min” value was 0.25 ± 0.01 % ID/g.

The values above are taken from US9713651B2, “Compositions, methods, and systems for the synthesis and use of imaging agents” (Lantheus Medical Imaging, Inc., priority 2012, dated 2017).
